Assay results published in patent publication US11873298B2, “Compounds and uses thereof” (JANSSEN PHARMACEUTICA NV, priority 2017, dated 2024).
pIC50: −log10 of the molar value.

Assays:
SCD1 = target: T1, SCD1 (Homo sapiens, UniProt O00767); experiment: Growth inhibition of humanized yeast strain expressing SCD1 as sole desaturase; assay type: cell-based
T1 construct: host or cells: S. cerevisiae ole1Δ strain (W303 pdr1Δ pdr3Δ background), plasmid pRS316 with TDH3 promoter and CYC1 terminator
T1 sequence (O00767 1-359): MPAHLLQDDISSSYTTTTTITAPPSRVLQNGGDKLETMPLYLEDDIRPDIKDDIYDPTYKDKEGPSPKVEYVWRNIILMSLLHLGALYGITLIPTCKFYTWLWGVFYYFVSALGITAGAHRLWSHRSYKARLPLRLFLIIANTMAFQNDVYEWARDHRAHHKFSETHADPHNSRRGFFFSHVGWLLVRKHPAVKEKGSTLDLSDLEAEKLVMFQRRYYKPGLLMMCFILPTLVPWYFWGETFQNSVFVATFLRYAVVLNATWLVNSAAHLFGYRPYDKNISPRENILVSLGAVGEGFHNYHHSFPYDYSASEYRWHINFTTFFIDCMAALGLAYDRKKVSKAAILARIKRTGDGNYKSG
Method in brief: (§1)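 Yeast ole1Δ strain (W303 pdr1Δ pdr3Δ background) carrying plasmid-borne Ole1, SCD1 or SCD5 as sole desaturase was grown in uracil-lacking media, pre-cultured in raffinose for 6 h, then seeded in galactose medium with compound in DMSO. Growth was read as OD600 after 30° C. incubation: 24 h for Ole1, 40 h for SCD1/SCD5.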

SCD5 = target: T2, SCD5 (Homo sapiens, UniProt Q86SK9); experiment: Growth inhibition of humanized yeast strain expressing SCD5 as sole desaturase; assay type: cell-based
T2 construct: host or cells: S. cerevisiae ole1Δ strain (W303 pdr1Δ pdr3Δ background), plasmid pRS316 with TDH3 promoter and CYC1 terminator
T2 sequence (Q86SK9 1-330): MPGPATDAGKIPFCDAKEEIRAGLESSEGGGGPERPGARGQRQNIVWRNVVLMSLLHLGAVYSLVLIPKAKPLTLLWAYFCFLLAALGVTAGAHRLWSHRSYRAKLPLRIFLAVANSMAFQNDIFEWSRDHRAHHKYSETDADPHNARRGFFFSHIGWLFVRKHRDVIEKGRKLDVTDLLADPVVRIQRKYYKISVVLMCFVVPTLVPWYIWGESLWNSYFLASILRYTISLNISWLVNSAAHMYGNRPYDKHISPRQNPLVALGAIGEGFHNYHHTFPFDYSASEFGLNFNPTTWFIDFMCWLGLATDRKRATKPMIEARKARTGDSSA
Method in brief: as §1

[1] = humanized yeast strain expressing SCD1
[2] = humanized yeast strain expressing SCD5
[3] = growth inhibition of humanized yeast strain expressing human SCD1
[4] = growth inhibition of humanized yeast strain expressing human SCD5

c1cc2cnn(C3COC3)c2cc1-c1nc(C2CCNCC2)no1 [Compound 752]
pIC50 (SCD1; humanized yeast strain, 40 h): < 4.35 | pIC50 (SCD5; humanized yeast strain, 40 h): < 4.35

O=C(N1CCC(c2noc(-c3ccnc(Cl)c3)n2)CC1)C1(F)CC1 [Compound 1122]
pIC50 (SCD1; humanized yeast strain, 40 h): < 4.35 | pIC50 (SCD5; humanized yeast strain, 40 h): 4.88

CC(C)n1ncc2ccc(-c3noc(N4CCN(C(=O)c5ccccc5Cl)CC4)n3)cc21 [Compound 364]
SCD1 % Max Inhibition (SCD1; [1]): 70.82% | pIC50 (SCD5; [2]): < 4.35 | SCD5 % Max Inhibition (SCD5; [2]): 2.22%

CC(C)C(=O)N1CCC(c2noc(-c3cccc(C4CCOC4)n3)n2)CC1 (stereo not shown) [Compound 1188]
pIC50 (SCD1; humanized yeast strain, 40 h): < 4.35 | pIC50 (SCD5; humanized yeast strain, 40 h): < 4.35

Cc1nn(C)c2cc(-c3noc(C4CCN(Cc5ccccc5)C(=O)C4)n3)ccc12 (stereo not shown) [Compound 354]
pIC50 (SCD1; [1]): < 4.35 | SCD1 % Max Inhibition (SCD1; [1]): 30.16% | pIC50 (SCD5; [2]): < 4.35 | SCD5 % Max Inhibition (SCD5; [2]): 4.29%

CC(C)(C)OC(=O)N1CCC(c2noc(N3CCc4nn(C5COC5)cc4C3)n2)CC1 [Compound 1172]
pIC50 (SCD1; humanized yeast strain, 40 h): ≤ 4.35 | pIC50 (SCD5; humanized yeast strain, 40 h): 5.00

C[C@H]1C[C@H](c2noc(-c3ccc4cnn(C5COC5)c4c3)n2)CCN1C(=O)C1CCC1 [Compound 1056]
pIC50 (SCD1; humanized yeast strain, 40 h): < 4.35 | pIC50 (SCD5; humanized yeast strain, 40 h): 8.33

CC(C)n1ncc2ccc(-c3nc(C4CCN(C(=O)C5(O)CC5)CC4)no3)cc21 [Compound 722]
pIC50 (SCD1; [3]): < 4.35 | pIC50 (SCD5; [4]): 5.86

CCOCC1CCN(c2nc(-c3ccc4cnn(C(C)C)c4c3)no2)CC1 [Compound 614]
pIC50 (SCD1; [3]): < 4.35 | pIC50 (SCD5; [4]): 4.86

CC(C)n1ncc2ccc(-c3noc(C4CCN(C(=O)C56CC(C(F)(F)F)(C5)C6)CC4)n3)cc21 [Compound 757]
pIC50 (SCD1; humanized yeast strain, 40 h): < 4.35 | pIC50 (SCD5; humanized yeast strain, 40 h): 5.31

O=C(c1ccccc1F)N1CCC(c2noc(-c3ccc4cnn(C5COC5)c4c3)n2)CC1 [Compound 696]
pIC50 (SCD1; [3]): < 4.35 | pIC50 (SCD5; [4]): 7.10

CC(C)(C)OC(=O)N1CCC(c2noc(-c3cccc(N4CCOCC4)c3F)n2)CC1 [Compound 1154]
pIC50 (SCD1; humanized yeast strain, 40 h): < 4.35 | pIC50 (SCD5; humanized yeast strain, 40 h): 7.80

CO[C@H]1C[C@@H](n2ncc3ccc(-c4noc(C5CCN(C(=O)OC(C)(C)C)CC5)n4)cc32)C1 [Compound 867]
pIC50 (SCD1; humanized yeast strain, 40 h): < 4.35 | pIC50 (SCD5; humanized yeast strain, 40 h): 5.72

COC(=O)N1CC2(C1)CN(c1noc(-c3ccc4cnn(C5COC5)c4c3)n1)C2 [Compound 1063]
pIC50 (SCD1; humanized yeast strain, 40 h): < 4.35 | pIC50 (SCD5; humanized yeast strain, 40 h): 5.46

COC(=O)N1CCC(c2noc(-c3ccnc(-c4cnn(C)c4)c3)n2)CC1 [Compound 1265]
pIC50 (SCD1; yeast strain expressing human SCD1 as sole desaturase, Table 8): 4.87 | pIC50 (SCD5; yeast strain expressing human SCD5 as sole desaturase, Table 8): 4.96

Cc1nn(C)c2cc(-c3noc(C4CCN(C(=O)[C@H]5CC(=O)N(c6cccc(C#N)c6)C5)CC4(F)F)n3)ccc12 (stereo partly shown) [Compound 631]
pIC50 (SCD1; [3]): < 4.35 | pIC50 (SCD5; [4]): < 4.35

O=C(c1nccs1)N1CCN(c2nc(-c3ccc4cnn(C5COC5)c4c3)no2)CC1 [Compound 740]
pIC50 (SCD1; [3]): < 4.35 | pIC50 (SCD5; [4]): 5.84

CC1(OC(=O)N2CCC(c3noc(-c4ccnc([C@H]5CCOC5)c4)n3)CC2)CC1 [Compound 1136]
pIC50 (SCD1; humanized yeast strain, 40 h): < 4.35 | pIC50 (SCD5; humanized yeast strain, 40 h): 8.00

COC(=O)N1CCC(c2nc(-c3ccc4cnn(C(C)C)c4c3)no2)CC1 [Compound 355]
SCD1 % Max Inhibition (SCD1; [1]): 71.31% | pIC50 (SCD5; [2]): < 4.35 | SCD5 % Max Inhibition (SCD5; [2]): 3.68%

CC(C)n1ncc2ccc(-c3noc(C4CCN(C(=O)COc5ccccc5)CC4)n3)cc21 [Compound 358]
SCD1 % Max Inhibition (SCD1; [1]): 59.61% | pIC50 (SCD5; [2]): < 4.35 | SCD5 % Max Inhibition (SCD5; [2]): 4.53%

CC(C)C(=O)N1CC[C@H](c2noc(-c3ccc4cnn(C5COC5)c4c3)n2)C[C@H]1C [Compound 1058]
pIC50 (SCD1; humanized yeast strain, 40 h): < 4.35 | pIC50 (SCD5; humanized yeast strain, 40 h): 8.44

COC(=O)N1CCN(c2noc(-c3ccnc(OC(CO)CO)c3)n2)CC1 [Compound 1007]
pIC50 (SCD1; humanized yeast strain, 40 h): < 4.35 | pIC50 (SCD5; humanized yeast strain, 40 h): < 4.35

O=C(CC1CC1)N1CCCN(c2noc(-c3ccc4cnn(C5COC5)c4c3)n2)CC1 [Compound 965]
pIC50 (SCD1; humanized yeast strain, 40 h): < 4.35 | pIC50 (SCD5; humanized yeast strain, 40 h): 8.00

CC(C)(C)OC(=O)N1CCC(c2nc(-c3ccc4cnc(Br)n4c3)no2)CC1 [Compound 865]
pIC50 (SCD1; humanized yeast strain, 40 h): < 4.35 | pIC50 (SCD5; humanized yeast strain, 40 h): 8.00

CC1(OC(=O)N2CCC(c3nnc(-c4ccc5cnn(C6CCOC6)c5c4)o3)CC2)CC1 (stereo not shown) [Compound 986]
pIC50 (SCD1; humanized yeast strain, 40 h): < 4.35 | pIC50 (SCD5; humanized yeast strain, 40 h): 7.32

COC(=O)N1CCC(c2nc(-c3ccc4cnn(C5CS(=O)(=O)C5)c4c3)no2)CC1 [Compound 1014]
pIC50 (SCD1; humanized yeast strain, 40 h): < 4.35 | pIC50 (SCD5; humanized yeast strain, 40 h): 5.32

CC1(C(=O)N2CCN(c3nc(-c4ccc5cnn(C6COC6)c5c4)no3)CC2)CCCO1 (stereo not shown) [Compound 916]
pIC50 (SCD1; humanized yeast strain, 40 h): 5.71 | pIC50 (SCD5; humanized yeast strain, 40 h): 8.00

CC(C)(C)OC(=O)N1CCN(c2noc(-c3ccnc(OC4COC4)c3)n2)CC1 [Compound 977]
pIC50 (SCD1; humanized yeast strain, 40 h): < 4.35 | pIC50 (SCD5; humanized yeast strain, 40 h): 5.23

CC(C)n1ccc2ccc(-c3nc(C4CCN(C(=O)OC(C)(C)C)CC4)no3)cc21 [Compound 1048]
pIC50 (SCD1; humanized yeast strain, 40 h): < 4.35 | pIC50 (SCD5; humanized yeast strain, 40 h): 7.80

COCC(C)(C)n1ncc2ccc(-c3noc(N4CCN(C(=O)OC(C)(C)C)CC4)n3)cc21 [Compound 788]
pIC50 (SCD1; humanized yeast strain, 40 h): < 4.35 | pIC50 (SCD5; humanized yeast strain, 40 h): 5.21

Cc1nn(C)c2cc(-c3noc(C4CCN(C(=O)CCC(F)(F)F)CC4)n3)ccc12 [Compound 677]
pIC50 (SCD1; [3]): < 4.35 | pIC50 (SCD5; [4]): < 4.35

CC(C)(C)OC(=O)N1CCC(c2noc(-c3cc(F)c4cnn(C5COC5)c4c3)n2)CC1 [Compound 860]
pIC50 (SCD1; humanized yeast strain, 40 h): < 4.35 | pIC50 (SCD5; humanized yeast strain, 40 h): 6.32

CC(C)C(=O)N1CCC(c2noc(-c3ccc4cnn(C5CCOC5)c4c3)n2)CC1 (stereo not shown) [Compound 1024]
pIC50 (SCD1; humanized yeast strain, 40 h): < 4.35 | pIC50 (SCD5; humanized yeast strain, 40 h): 8.00

COCC(C)(C)n1ncc2ccc(-c3noc(C4CCN(C(=O)CC(C)(C)C)CC4)n3)cc21 [Compound 802]
pIC50 (SCD1; humanized yeast strain, 40 h): < 4.35 | pIC50 (SCD5; humanized yeast strain, 40 h): 4.85

CCC(=O)N1CCCN(c2noc(-c3ccc4cnn(C5COC5)c4c3)n2)CC1 [Compound 962]
pIC50 (SCD1; humanized yeast strain, 40 h): < 4.35 | pIC50 (SCD5; humanized yeast strain, 40 h): 8.00

CC(C)(C)OC(=O)N1CCN(c2noc(-c3ccc4cnn(C5COC5)c4c3)n2)CC(F)(F)C1 [Compound 1012]
pIC50 (SCD1; humanized yeast strain, 40 h): 4.82 | pIC50 (SCD5; humanized yeast strain, 40 h): 8.00

Cc1nn(C)c2cc(-c3nc(C4CCN(C(=O)OC5CC5)CC4)no3)ccc12 [Compound 911]
pIC50 (SCD1; humanized yeast strain, 40 h): < 4.35 | pIC50 (SCD5; humanized yeast strain, 40 h): < 4.35

COC(=O)N1CCC(c2noc(-c3ccc4cn(C5COC(C)(C)C5)nc4c3)n2)CC1 (stereo not shown) [Compound 1095]
pIC50 (SCD1; humanized yeast strain, 40 h): < 4.35 | pIC50 (SCD5; humanized yeast strain, 40 h): 4.95

O=C(N1CCN(c2noc(-c3ccnc(Cl)c3)n2)CC1)C1(F)CC1 [Compound 1120]
pIC50 (SCD1; humanized yeast strain, 40 h): < 4.35 | pIC50 (SCD5; humanized yeast strain, 40 h): 4.48

CNC(=O)c1nc(-c2ccc3c(C)nn(C)c3c2)no1 [Compound 745]
pIC50 (SCD1; [3]): < 4.35 | pIC50 (SCD5; [4]): < 4.35

O=C(N1CCC(c2noc(-c3ccc4cnn(C5COC5)c4c3)n2)CC1)C1(O)CC1 [Compound 903]
pIC50 (SCD1; humanized yeast strain, 40 h): < 4.35 | pIC50 (SCD5; humanized yeast strain, 40 h): 8.00

CC(C)c1ncn2ccc(-c3noc(C4CCN(C(=O)OC(C)(C)C)CC4)n3)cc12 [Compound 866]
pIC50 (SCD1; humanized yeast strain, 40 h): < 4.35 | pIC50 (SCD5; humanized yeast strain, 40 h): 5.34

O=C(c1ccccc1)N1CCC(c2noc(-c3ccc4cnn(C5COC5)c4c3)n2)CC1 [Compound 685]
pIC50 (SCD1; [3]): < 4.35 | pIC50 (SCD5; [4]): 6.74

CC(C)n1ncc2ccc(-c3nc(C4CCN(C(=O)CC5CC5)CC4)no3)cc21 [Compound 853]
pIC50 (SCD1; humanized yeast strain, 40 h): < 4.35 | pIC50 (SCD5; humanized yeast strain, 40 h): 8.00

COC1(C(=O)N2CCC(c3nc(-c4ccc5cnn(C(C)C)c5c4)no3)CC2)CC1 [Compound 797]
pIC50 (SCD1; humanized yeast strain, 40 h): < 4.35 | pIC50 (SCD5; humanized yeast strain, 40 h): 6.88

CC(C)n1ncc2ccc(-c3noc(N4CCN5C(=O)N(C)CC5C4)n3)cc21 (stereo not shown) [Compound 1108]
pIC50 (SCD1; humanized yeast strain, 40 h): < 4.35 | pIC50 (SCD5; humanized yeast strain, 40 h): < 4.35
